# Laboratory results taken from patent publication US9994862B2, “Rice resistant to HPPD and ACCase inhibiting herbicides” (priority 2011, dated 2018).
# Entries after “also recorded” stand apart in the source; their conditions may differ.
# Experiments:
# [1] = system: permanent mutant population (lines derived from P1003, R0146, P1062); assay: Mesotrione screening of the permanent mutant population; type: in vivo, rice; conditions: 255.1 gm ai per acre, within twelve hours after planting
# Text: A mutation breeding program was initiated to develop proprietary herbicide resistant/tolerant lines. A permanent mutant population was created by exposing approximately 10,000 seeds (estimated by the average weight of a kernel) of three rice lines including P1003, R0146, and P1062 to both mutagens sodium azide (AZ) and methyl-nitrosourea (MNU). The treated seeds were planted. Individual plants were harvested creating 8,281 potentially […] lines. The lines have been maintained as a permanent mutant population for trait screening.
# Resistance to mesotrione herbicide was found by screening the permanent mutant population. All lines in the permanent mutant population were planted into a dry seed bed. Within twelve hours after planting mesotrione (Callisto®) was applied at a rate of 255.1 gm ai per acre. The field was immediately flushed with water and kept moist through periodic flushing. The seedlings grew, many were bleached white and all lines derived from R0146 died whereas plants lived from 21 lines derived from the P1003 and 2 derived from P1062 mutation populations. The HPPD gene was sequenced, and no genetic mutation was identified causing any amino acid substitutions (SEQ ID NOs: 1, 2, 3).
# line ML0831265-01493 = assay: Mesotrione tolerance trials / herbicide bioassay; type: in vivo, rice
# Text: The mutant line is planted in rows or alternatively whole plots are planted and rows of the unmutated line (P1003) and other types of rice or whole plots are planted. Mesotrione is applied pre-emergence or alternatively it is applied post-emergence at the three to four leaf stage of the rice plants. Various rates of mesotrione are applied pre-emergence, pre-emergence followed by post-emergent, or post-emergent with a single or sequential application. Post-emergent applications are applied at the 3-4 leaf stage of the rice.
# With low rates (105 gm ai/ha) of mesotrione applied both the mutant line as well as the original unmutated line survive. However, other types of rice, such as the mutant line with ACCase tolerance ML0831265-01493 and the associated unmutated line R0146 are killed at these rates of mesotrione. […] The higher tolerance to mesotrione makes the line ML0831266-03093 of commercial value as both the tolerance can be controlled or bred into new varieties and it is of a high enough level to allow commercial weed control in rice with the application of mesotrione herbicide and possibly other HPPD inhibiting herbicides (FIG. 19A initial results, FIG. 19B new results after 1 year, and FIG. 22—trial results on various rice lines).
compound,measurement,setting,value
CS(=O)(=O)c1ccc(C(=O)C2C(=O)CCCC2=O)c([N+](=O)[O-])c1 [mesotrione],number of lines derived from P1003 with plants that lived,[1],21 lines
same,number of lines derived from P1062 with plants that lived,[1],2 lines
same,response of lines derived from R0146,[1],died
same,sensitivity to mesotrione,line ML0831265-01493; in vivo,highly susceptible; also recorded: highly sensitive
same,survival after mesotrione,line ML0831265-01493; low rate 105 gm ai/ha,killed
